# Where a name gives a salt, the structure may show the parent alone.
# Target: T1, recombinant human 5-HT6 receptor (Homo sapiens, UniProt P50406)
# T1 construct: expressed in transfected cells
# Assay: Radioligand binding, [3H]LSD competition in HEK293 cell membranes
# Conditions: [3H]LSD displacement, pH 7.4, 37° C., read-out: pKi for the 5-HT6 receptor (converted)
# Method: (§1) The binding activity of compounds of this invention in vitro was determined as follows. Duplicate determinations of 5-HT6 ligand affinity were made by competing for binding of [^3H]LSD in cell membranes derived from HEK293 cells stably expressing recombinant human 5-HT6 receptor. Duplicate determinations of 5-HT2A ligand affinity were made by competing for binding of [^3H]Ketanserin (3-(2-(4-(4-fluorobenzoyl)piperidinol)ethyl)-2,4(1H,3H)-quinazolinedione) in cell membranes derived from CHO-K1 cells stably expressing recombinant human 5-HT2A receptor.
# (§2) Assay tubes containing [^3H] LSD or [^3H]Ketanserin (5 nM), competing ligand, and membrane were incubated in a shaking water bath for 75 min. at 37° C. (for 5-HT6) or 60 min. at 32° C. (for 5-HT2A), filtered onto Packard GF-B plates (pre-soaked with 0.3% PEI) using a Packard 96 well cell harvester and washed 3 times in ice cold 50 mM Tris-HCl. Bound [^3H] LSD or [^3H]Ketanserin were determined as radioactive counts per minute using Packard TopCount.
# (§3) Displacement of [^3H]LSD or [^3H]Ketanserin from the binding sites was quantified by fitting concentration-binding data to a 4-parameter logistic equation:
# (§4) [formula] where Hill is the Hill slope, [ligand] is the concentration of competing radioligand and IC50 is the concentration of radioligand producing half-maximal specific binding of radioligand. […]
# T1 sequence (P50406 whole entry): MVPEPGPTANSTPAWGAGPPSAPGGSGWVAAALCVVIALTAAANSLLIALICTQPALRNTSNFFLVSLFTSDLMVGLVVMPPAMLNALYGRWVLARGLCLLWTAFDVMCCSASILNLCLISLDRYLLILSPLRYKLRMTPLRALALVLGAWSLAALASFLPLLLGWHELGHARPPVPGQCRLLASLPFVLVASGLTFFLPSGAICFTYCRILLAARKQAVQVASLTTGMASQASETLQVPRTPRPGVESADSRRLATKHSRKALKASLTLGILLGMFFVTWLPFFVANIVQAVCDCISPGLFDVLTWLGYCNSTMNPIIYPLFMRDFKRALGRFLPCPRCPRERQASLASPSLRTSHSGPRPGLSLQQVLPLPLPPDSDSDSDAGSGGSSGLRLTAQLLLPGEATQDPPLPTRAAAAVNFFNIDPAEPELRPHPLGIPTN
row,Ki [nM],SMILES
1,~0.105,"O=S(=O)(c1ccccc1)c1ccc2c(c1)OCCN2C1CCNCC1 [Compound 22, 7-Benzenesulfonyl-4-piperidin-4-yl-3,4-dihydro-2H-benzo[1,4]oxazine]"

# Target: T2, recombinant human 5-HT2A receptor (Homo sapiens, UniProt P28223)
# T2 construct: expressed in transfected cells
# T2 sequence (P28223 whole entry): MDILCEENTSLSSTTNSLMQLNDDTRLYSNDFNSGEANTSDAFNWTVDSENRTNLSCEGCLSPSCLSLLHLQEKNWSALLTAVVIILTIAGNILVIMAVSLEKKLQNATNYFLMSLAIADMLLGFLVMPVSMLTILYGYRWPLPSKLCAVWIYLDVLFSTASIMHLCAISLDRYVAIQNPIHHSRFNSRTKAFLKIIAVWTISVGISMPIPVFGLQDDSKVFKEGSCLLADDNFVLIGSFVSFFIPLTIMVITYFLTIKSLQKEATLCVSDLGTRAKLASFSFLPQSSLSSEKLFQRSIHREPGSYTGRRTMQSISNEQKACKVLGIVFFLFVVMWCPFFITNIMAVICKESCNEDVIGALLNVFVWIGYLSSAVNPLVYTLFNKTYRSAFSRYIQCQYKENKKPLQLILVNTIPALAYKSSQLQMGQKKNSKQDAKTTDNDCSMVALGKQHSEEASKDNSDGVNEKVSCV
# Assay: Radioligand binding, [3H]Ketanserin competition in CHO-K1 cell membranes
# Conditions: [3H]Ketanserin displacement, pH 7.4, 32° C., read-out: pKi for the 5-HT2A receptor (converted)
# Method: as §1, §2, §3, §4
row,Ki [nM],SMILES
1,~8.13,"O=S(=O)(c1ccccc1)c1ccc2c(c1)OCCN2C1CCNCC1 [Compound 22, 7-Benzenesulfonyl-4-piperidin-4-yl-3,4-dihydro-2H-benzo[1,4]oxazine]"

# Tested on: not given
# Assay: not given
# Conditions: not given
row,melting point [°C],SMILES
1,130.5 to 136.7,O=C(C1CCCNC1)N1CCOc2cc(S(=O)(=O)c3ccccc3)ccc21 (centres unmarked) (as salt: hydrochloride)
2,122.8 to 127.6,O=S(=O)(c1ccccc1)c1ccc2c(c1)OCCN2C1CCNC1 (centres unmarked) (as salt: hydrochloride)
3,148.5 to 151.6,N=C(N)NC(=O)N1CCOc2cc(S(=O)(=O)c3ccccc3)ccc21 (as salt: hydrochloride)
4,114 to 116.1,O=C(CC1=NCCN1)N1CCOc2ccc(S(=O)(=O)c3ccccc3)cc21
5,114 to 116.1,O=S(=O)(c1ccccc1)c1ccc2c(c1)N(CC1=NCCN1)CCO2 (as salt: HCl)
6,232.9 to 235.3,CN(C)CCN1C(=O)COc2cc(S(=O)(=O)c3ccccc3)ccc21 (as salt: HCl)
7,208.3 to 214.7,CNCCC(=O)N1CCOc2ccc(S(=O)(=O)c3ccccc3)cc21 (as salt: hydrochloride)
8,188.3 to 193.2,CNCCCN1CCOc2cc(S(=O)(=O)c3ccccc3)ccc21 (as salt: hydrochloride)
9,250 to 252,O=C1COc2ccc(S(=O)(=O)c3ccccc3)cc2N1CC1=NCCN1 (as salt: HCl)
10,220.9 to 221.3,NCCNC(=O)N1CCOc2cc(S(=O)(=O)c3ccccc3)ccc21 (as salt: hydrochloride)
11,202.3 to 203.6,O=C(CC1=NCCN1)N1CCOc2cc(S(=O)(=O)c3ccccc3)ccc21 (as salt: HCl)
12,199 to 203,CN(C)CC(=O)N1CCOc2ccc(S(=O)(=O)c3ccccc3)cc21 (as salt: hydrochloride)
13,284.9 to 296.3,CC1(C)CN(C2CCNCC2)c2ccc(S(=O)(=O)c3ccccc3)cc2O1 (as salt: hydrochloride)
14,242.9 to 245.9,NCCN1CCOc2ccc(S(=O)(=O)c3ccccc3)cc21 (as salt: HCl)
15,109.2 to 110.5,O=C(C1CCNC1)N1CCOc2cc(S(=O)(=O)c3ccccc3)ccc21 (centres unmarked) (as salt: hydrochloride)
16,261 to 265.1,NCCN1CCOc2cc(S(=O)(=O)c3ccccc3)ccc21 (as salt: HCl)
17,206.9 to 209.1,NCCN1C(=O)COc2cc(S(=O)(=O)c3ccccc3)ccc21 (as salt: hydrochloride)
18,182 to 186.6,O=C(C1CNC1)N1CCOc2cc(S(=O)(=O)c3ccccc3)ccc21 (as salt: hydrochloride)
19,233 to 235.5,CNCC(=O)N1CCOc2ccc(S(=O)(=O)c3ccccc3)cc21 (as salt: hydrochloride)
20,61.5 to 64.4,O=S(=O)(c1ccccc1)c1ccc2c(c1)OCCN2CCn1ccnc1
21,179 to 180,CN(C)CCCCN1C(=O)COc2cc(S(=O)(=O)c3ccccc3)ccc21 (as salt: HCl)
22,44 to 47,O=C(CC1=NCCN1)N1CCOc2cc(S(=O)(=O)c3ccccc3)ccc21
23,112.7 to 120.4,CC1(C)CN(c2ccncc2)c2ccc(S(=O)(=O)c3ccccc3)cc2O1 (as salt: hydrochloride)
24,61.2 to 67.3,N=C(N)NC(=O)N1CCOc2cc(S(=O)(=O)c3ccccc3)ccc21
25,194 to 196.4,CN(C)CCCN1C(=O)COc2cc(S(=O)(=O)c3ccccc3)ccc21 (as salt: HCl)
26,172.4 to 181.3,NCCNC(=O)N1CCOc2ccc(S(=O)(=O)c3ccccc3)cc21
27,113.7 to 116,O=C1COc2cc(S(=O)(=O)c3ccccc3)ccc2N1CC1=NCCN1 (as salt: HCl)

# Reference: patent US7378415B2, “Benzoxazine and quinoxaline derivatives and uses thereof” (Roche Palo Alto LLC, priority 2004, dated 2008)
